Series [1] concerns Mtb CDC1551. The series is described as follows: microbe, parasite or virus in culture. The class given is cell-based, Mycobacterium tuberculosis.
The subject of series [2] is MRSA 1. The series is described as follows: MIC assay against clinical isolate. The class given is cell-based, S. aureus. The following applies: Staphylococcus aureus.
Series [3] deals with MRSA 2. The series is described as follows: MIC assay against clinical isolate. The following applies: Staphylococcus aureus. The class given is cell-based, S. aureus.
Series [4] has as its system S. aureus 129. The series is described as follows: MIC assay against clinical isolate. Conditions: Staphylococcus aureus. The class given is cell-based.
Series [5] relates to S. aureus 147. In words: MIC assay against clinical isolate. The class given is cell-based. Conditions: Staphylococcus aureus, 147; clinical isolate; read-out: MIC S. aureus 147.
Series [6] concerns S. aureus 138. The series is described as follows: MIC assay against clinical isolate. Conditions: Staphylococcus aureus. The class given is cell-based.
Series [7] relates to S. aureus 156. The series is described as follows: MIC assay against clinical isolate. The class given is cell-based. Conditions: Staphylococcus aureus, 156, read-out: MIC S. aureus 156.
Series [8] concerns human red blood cells. The series is described as follows: Hemolysis assay with red blood cells. Conditions: human RBCs, 1 hour, 37° C. On the procedure:
Hemolysis assays are used to determine the membrane-lysis activity of a compound, which is of particular interest to this work as membrane-lysing agents (e.g., QACs) can eradicate biofilms.
Cytotoxicity Assay against HEK-293 Cells.^48 The viability of HEK-293 cells was assessed by the MTT assay. The cells were cultured in DMEM medium containing 10% fetal bovine serum and 100 U/mL penicillin and streptomycin. The cells (10^4 cells/well) were seeded onto a 96-well plate and maintained at 37° C. in a humidified incubator under 5% CO2 overnight. […] After incubation at 37° C. for 72 hours, 10 μL of MTT (5 mg/mL) in PBS was added to each well and incubated for 4 hours, followed by the aspiration of the medium. Dimethyl sulfoxide (DMSO, 100 μL) was then added to each well to dissolve the MTT in the wells, and the plate was agitated for 1 hour. The optical density (OD) was measured at 570 nm using a UV/vis microplate spectrophotometer (BioTek). The percent inhibition was calculated as follows: Inhibition (%)=(1−test OD570/non-treated OD570)×100%. The data were analyzed by Origin. Hemolysis Assay with Red Blood Cells. […] The washing was repeated three times with the buffer. In 96-well plate, test compounds were added to the buffer from DMSO stocks. […] The plate was then incubated for 1 hour at 37° C. After incubation, the plate was centrifuged for 5 minutes at 3,500 rpm before 80 μL of the supernatant was transferred to another 96-well plate to obtain an optical density (OD) read at 405 nm. DMSO served as the negative control (0% hemolysis) while Triton X served as the positive control (100% hemolysis) in these experiments. The percent hemolysis was calculated as (OD405 of the compound treated RBCs−OD405 DMSO control)/(OD405 Triton X treated RBCs−OD405 buffer) from three independent experiments.

A short description of series [9]: pKa determination by UV-vis spectroscopy. The class given is physicochemical. On the procedure:
(c) pKa determination of select HP analogues.^36 Dissociation constants (pKa) for select HP analogues were determined using UV-vis spectroscopy and the Henderson-Hasselbalch equation. Buffers were prepared using potassium phosphate monobasic (KH2PO4) and sodium phosphate dibasic ([…]) in a 1:1 solution of water:methanol to achieve a pH range of 4.07 to 9.66 (ammonium hydroxide was added to prepare buffer pH over 9.80). Compounds were added from 10 mM stock solutions in dimethyl sulfoxide (25 μL) to 1975 μL of each buffer to each evaluate analogue to yield a final compound concentration of 125 μM. Full spectral scans were performed from 200 to 800 nm in 2 nm increments to determine λmax values for the protonated phenol (HA) and the deprotonated phenolate species (A^−). The change in absorption at each determined λmax in relation to pH was monitored in each buffer and plotted as absorbance versus pH for each species. The pKa was first estimated by determining the pH of the point of intersection of the two linear curves. The visual estimation was confirmed by plotting pH versus log [A^−/HA]. The resulting plot yielded a linear regression line with a Y-intercept corresponding to a calculated pKa value.

The test system of series [10] is HEK-293 cells. The series is described as follows: MTT cytotoxicity assay, HEK-293. The following applies: read-out: HEK-293 Cytotox. (IC50), 72-h.
The subject of series [11] is HepG2 cells. The series is described as follows: Alamar Blue cytotoxicity assay, HepG2. The following applies: read-out: Hep G2 Cytotox. (IC50), 24-h.
For series [12], the system named is HeLa cells. In words: LDH release assay for HeLa cytotoxicity. The following applies: read-out: HeLa Cell Cytotox. (IC50), 24-h, tested at 25, 50 and 100 μM.
Series [13] concerns MRSA-1707. In words: MIC susceptibility assay (broth microdilution). The following applies: 16 h; for MIC MRSA-1707: planktonic growth inhibition, 37° C.
Procedure: (§1) (MIC values were further supported by spectrophotometric readings at OD600). The concentration range tested for each HP compound during this study was 0.05 to 50 μM. DMSO served as our vehicle and negative control in each microdilution MIC assay. DMSO was serially diluted with a top concentration of 0.5% v/v.
Series [14] concerns MRSA-44. In words: MIC susceptibility assay (broth microdilution). The following applies: Staphylococcus aureus, 16 h, read-out: MIC MRSA-44.
Procedure: as §1
For series [15], the system named is isdB, sfaA, sbnC, MW0695 transcripts in MRSA-1707 biofilms. In words: RT-qPCR of iron uptake genes in MRSA biofilms. Conditions: 4 h treatment at 1 μM or 1/10×MBEC.
The test system of series [16] is E. faecalis OG1RF. In words: MIC susceptibility assay (broth microdilution). Conditions: Enterococcus faecalis, 16 h, read-out: MIC E. faecalis OG1RF.
Procedure: as §1
For series [17], the system named is J774 MΦ. The series is described as follows: Alamar Blue cytotoxicity assay, J774 macrophages. The following applies: read-out: J774 MΦ Cytotox. (IC50), 24-h.
Series [18] has as its system E. faecalis OG1RF. The series is described as follows: E. faecalis dorsal wound infection model in mice. The following applies: C57BL/6J mice, topical PEG ointment once a day, day 3.
Source text: (§2) In separate experiments, wounds were created on the mouse's dorsal mid-section using a biopsy punch to remove the dermal layer. The resulting wound was inoculated with either S. aureus UAMS-1 (1×10^7 CFU/mL), or E. faecalis OG1RF ([…] CFU/mL) to establish infection.
Enterococcus faecalis strain OG1RF was used in animal experiments during these investigations. Seven-week old female C57BL/6J mice were purchased from Jackson Laboratories Ltd. and housed according to the University of Florida's approved IACUC protocol 201709769.
E. faecalis Dorsal Wound Infection Model. […] On day 3 (2 days of treatment) post-infection, animals were euthanized and the wounds aseptically excised using a surgical blade and the tissues homogenized in 1 mL of sterile PBS. The homogenates were serially diluted and plated on trypticase soy (TSA) agar containing rifampicin and fusidic acid for bacterial enumeration.
Series [19] relates to S. aureus UAMS-1. In words: S. aureus dermal (dorsal) wound infection model in mice. The following applies: BALB/c mice, topical 2% PEG ointment every 12 hours, three consecutive days.
Source text: as §2
Staphylococcus aureus strain UAMS-1, a well-characterized antibiotic susceptible clinical isolate commonly used to study the organism's biofilm formation and colonization properties, was used in animal experiments during these studies.^59 Female BALB/c mice 4 to 6 weeks of age were obtained from Charles River Laboratories International, Inc. (Wilmington, MA) and housed individually according to approved University of Rochester Medical Center Council on Animal Research (UCAR) protocol UCAR-101864/2017-022.
S. aureus Dermal Wound Infection Model. The effects of ointment compilations were evaluated for in vivo antimicrobial activity using a dermal wound infection mouse model, as previously described.^52 Briefly, mice were anesthetized by intraperitoneal injection with a mixture of 100 mg kg^−1 Ketamine (Hospira Inc., Lake Forest IL) and 10 mg kg^−1 Xylazine (Lloyd Laboratories, Shenandoah IA) in PBS. Two mg kg^−1 meloxicam (Henry Schein Animal Health, Portland, ME) was administered prior to dermal wounding. […]
For series [20], the system named is MRSA, MRSE and VRE strains. The series is described as follows: MIC assays, summary statements over several Gram-positive strains. Conditions: for MICs against all Gram-positive strains in the panel: result in words.
Procedure: as §1
Series [21] deals with MRSA 44 biofilms. In words: Calgary Biofilm Device (CBD) assay. The following applies: biofilm eradication in CBD assay.
The subject of series [22] is MRSE 35984 biofilms. In words: Calgary Biofilm Device (CBD) assay.
Series [23] concerns VRE 700221 biofilms. The series is described as follows: Calgary Biofilm Device (CBD) assay. Conditions: Enterococcus, read-out: VRE 700221 MBC.
For series [24], the system named is E. faecalis OG1RF biofilms. The series is described as follows: Calgary Biofilm Device (CBD) assay. The following applies: Enterococcus faecalis, OG1RFBIOFILMS, read-out: E.faecalis OG1RF MBC.
Series [25] has as its system MRSE 35984. In words: MIC susceptibility assay (broth microdilution). Conditions: Staphylococcus epidermidis, MRSE, 16 h, read-out: MIC MRSE 35984.
Procedure: as §1
Where [26] appears, read: Mycobacterium tuberculosis, CDC1551, 120 h.

≈ marks a conversion by molar mass, not a printed value. Where “and” joins values, the source holds several entries; their conditions need not be identical. Identical values can stand only once. Entries after “also recorded” stand apart in the source; their conditions may differ. Like-named read-outs stand apart in the source and are kept apart here. Marks after values point to notes of the source that are not given here. Bounds are passed on as bounds.

For `Cc1cccc2nc3c(O)c(Br)c(Cl)c(Br)c3nc12` [Compound 29, 2,4-Dibromo-3-chloro-6-methylphenazin-1-ol], the MIC was 1.59 µM (≈ 0.64 µg/mL) in series [1]; 1.59 µM (≈ 0.64 µg/mL) in series [1] (setting [26]); 0.06 µM (≈ 0.0241 µg/mL) in series [2]; 0.12 µM (≈ 0.0483 µg/mL) in series [3]; 0.12 µM (≈ 0.0483 µg/mL) in series [4]; 0.12 µM (≈ 0.0483 µg/mL) in series [5]. The MIC in series [6] is 0.08 µM (≈ 0.0322 µg/mL); in series [7], 0.08 µM (≈ 0.0322 µg/mL); in [14], 0.08 µM (≈ 0.0322 µg/mL); in [16], 0.3 µM (≈ 0.121 µg/mL); in series [20] (read-out: MIC against MRSA, MRSE and VRE strains), 0.05 to 0.1 µM (≈ 0.0201 to 0.0402 µg/mL); in [20] (read-out: MIC against MRSA/MRSE strains), 0.075 µM (≈ 0.0302 µg/mL). The “% Hemolysis at 200 μM” value in series [8] is listed as at most 1%. Moreover, in [9], the pKa is given as 6.79. Also, the IC50 in series [10] was 18.3 ± 5.8 µM; in series [11], over 200 µM; in [12], over 100 µM; in [17], over 200 µM. In series [13], the “MIC MRSA-1707” value was 0.08^a μM. In series [15], the “iron starvation / up-regulation of iron uptake genes in MRSA-1707 biofilms” value is reported as “induction of iron starvation; also recorded: up-regulating iron uptake genes; also recorded: induced rapid iron starvation; also recorded: rapidly induce iron starvation”. Further, the “log10 reduction of E. faecalis OG1RF compared to vehicle control” value in series [18] came out at 1.73 log10. Further, in [19], the “log10 reduction in CFU per lesion of S. aureus UAMS-1 compared to vehicle” value is recorded as 0.82 log10. For the same compound, the “MICs against all Gram-positive strains in the panel” value in series [20] is “sub-micromolar”.
Regarding `Oc1c(Br)c(Cl)c(Br)c2nc3c(Cl)cc(Cl)cc3nc12` [Compound 34, 2,4-Dibromo-3,6,8-trichlorophenazin-1-ol], the MIC was 0.8 µM (≈ 0.366 µg/mL) in series [1] (setting [26]); 1.25 µM (≈ 0.572 µg/mL) in series [2]; 0.94 µM (≈ 0.43 µg/mL) in series [3]; 0.63 µM (≈ 0.288 µg/mL) in series [4]; 0.47 µM (≈ 0.215 µg/mL) in series [5]; 0.94 µM (≈ 0.43 µg/mL) in series [6]. Further, the MIC in series [7] is 0.47 µM (≈ 0.215 µg/mL); in series [13] (Staphylococcus aureus, MRSA, read-out: MIC MRSA-1707, planktonic growth inhibition, 16 h, 37° C.), 0.59 µM (≈ 0.27 µg/mL); in series [14], 0.15 µM (≈ 0.0686 µg/mL); in series [25], at most 0.05 µM; in [16], 0.3 µM (≈ 0.137 µg/mL). Also, the “% Hemolysis at 200 μM” value in series [8] is on record as at most 1%. Also, the “MRSA 44 MBEC” value in series [21] is recorded as 6.25^b/6.25^b μM. In [22] (CFU counts from CBD pegs, at the MBEC value), the “log10 reduction of viable MRSE biofilm cells” value is recorded as 3.18±0.40 log10. Further, the MBC in series [22] (Staphylococcus epidermidis, MRSE, read-out: MRSE 35984 MBC) was 0.59 µM (≈ 0.27 µg/mL); in [23], 0.39 µM (≈ 0.178 µg/mL); in series [24], 3.13 µM (≈ 1.43 µg/mL). For the same compound, the “log10 reduction of viable CFUs, MRSE 35984 biofilm” value in [22] (at 3.13 μM) is reported as about 5 log10. Further, the IC50 in [11] is over 200 µM; in [12] it was over 100 µM; in series [17] it was over 200 µM. Also, the “MIC MRSA-1707” value in series [13] was 0.59^a μM and 0.59 μM. Moreover, the “MICs against all Gram-positive strains in the panel” value in [20] is “sub-micromolar”.
